# What was measured:
# [1] = Pharmacokinetic evaluation after intravenous or gavage administration to dogs; type: in vivo, Beagle dogs; settings: 2.5 mg/kg; for AUC(0-inf) / AUC(0-t) / Cmax / MRT inf / Tmax / half-life: beagle, dog, plasma, intravenous, i.v group; for F: gavage group
# Experimental: (§1) The pharmacokinetics of the compound of the invention in rats and/or dogs were evaluated herein, the animal information was listed in Table B.
# The compound of the present invention was administered to the animal subjects in the form of 10% DMSO+10% Kolliphor HS15+78% Saline+2% (2% HCl) solution or 78% Saline+2% (2% HCl)+20% PEG400 solution. Before administration, the animals were fasted for 12 hours but water was freely allowed. In the IV group, the dose was 1 mg/kg (Rats) or 0.5 mg/kg (dogs), blood samples were taken from vein at the following time points after administration (blood volume was about 0.2 mL): 0.083, 0.25, 0.5, 1.0, 2.0, 4.0, 6.0, 8.0 and 24 h (dogs) or 0.083, 0.25, 0.5, 1.0, 2.0, 5.0, 7.0 and 24 h (Rats), EDTA-K2 was pre-added to the blood vessels as an anticoagulant. […] The blood samples were centrifuged at […] for 2 minutes. The plasma was collected and kept at −20° C. or −70° C.
# (§2) The above collected plasma samples were processed (after thawing of frozen plasma at room temperature, the thawed plasma was vortexed for 15 s; 10-20 μL of plasma was taken and 120-150 μL of acetonitrile solution containing internal standard was added to the plasma; the mixture was vortexed for 5 min amd centrifuged for 5 min at 4,000 rpm; 100 μL of supernatant was taken and 120-150 μL of methanol/water (v/v=1/1) was added to the suspernatant, and mixing), and then LC/MS/MS was used to analyze the concentration of the compound in plasma, and […] was used to calculate the pharmacokinetic parameters.
# humanized GnRH receptor = target: T1, humanized GnRH receptor (Homo sapiens, UniProt P30968); assay: Antagonism on humanized GnRH receptor transfected in RBL-1 cells, fluorescence detection of cytoplasmic calcium flow; type: cell-based; settings: RBL-1 cells transfected with humanized GnRH receptor, 8 nM LH-RH
# T1 construct: expressed in transfected cells; host or cells: RBL-1 cells (Rat Basophilic Leukemia)
# T1 sequence (P30968 1-328): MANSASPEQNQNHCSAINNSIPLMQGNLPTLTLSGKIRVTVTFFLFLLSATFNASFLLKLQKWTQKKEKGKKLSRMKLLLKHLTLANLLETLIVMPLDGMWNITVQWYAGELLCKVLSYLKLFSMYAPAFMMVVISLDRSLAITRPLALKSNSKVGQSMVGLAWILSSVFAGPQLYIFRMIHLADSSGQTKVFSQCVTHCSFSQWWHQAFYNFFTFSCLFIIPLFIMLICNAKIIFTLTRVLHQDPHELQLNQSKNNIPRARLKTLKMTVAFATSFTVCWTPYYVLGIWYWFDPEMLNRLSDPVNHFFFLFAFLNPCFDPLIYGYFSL
# Experimental: The antagonism of the compound on humanized GnRH receptor transfected in RBL-1 cells (Rat Basophilic Leukemia) was evaluated by a fluorescence method for detecting the cytoplasmic calcium flow.
# The cells were suspended in HBSS buffer (Invitrogen, USA), 20 mM HEPES buffer (Invitrogen, USA) was added, and then the cells were added at an average density of 1.186×10^4 cells/well into a microwell reaction plate. Fluorescent probe (Fluo8 Direct, AAT Bioquest) was mixed with HBSS buffer (adding 20 mM HEPES buffer, pH=7.4), and the mixture was added into each well and the cells were incubated at 30° C. for 60 min. Then the reaction plate was placed in a microplate reader (FlipR Tetra, Molecular Device) for testing, the test compound or HBSS buffer (blank control) was added, after 5 min, 8 nM LH-RH was added, and the changes of the fluorescence intensity which is proportional to intracellular calcium ion concentration were measured. The fluorescence intensity of the blank control group without adding the compound was taken as 100% (inhibition rate was 0%), and the inhibition rate of the compound was calculated. The IC50 value was calculated by measuring the inhibition rate of the compound at different concentrations.
# [2] = Pharmacokinetic evaluation after intravenous or gavage administration to rats; type: in vivo, SD rats; settings: for AUC(0-inf) / AUC(0-t) / Cmax / MRT inf / Tmax / clearance / half-life: Sprague-Dawley (SD), rat, plasma
# Experimental: as §1
# The compound of the present invention was administered to the animal subjects in the form of 10% DMSO+10% Kolliphor HS15+78% Saline+2% (2% HCl) solution or 78% Saline+2% (2% HCl)+20% PEG400 solution. Before administration, the animals were fasted for 12 hours but water was freely allowed. In the IV group, the dose was 1 mg/kg (Rats) or 0.5 mg/kg (dogs), blood samples were taken from vein at the following time points after administration (blood volume was about 0.2 mL): 0.083, 0.25, 0.5, 1.0, 2.0, 4.0, 6.0, 8.0 and 24 h (dogs) or 0.083, 0.25, 0.5, 1.0, 2.0, 5.0, 7.0 and 24 h (Rats), EDTA-K2 was pre-added to the blood vessels as an anticoagulant. In the gavage group, the dose was 5 mg/kg (Rats) or 2.5 mg/kg (dogs), blood samples were taken from vein at the following time points after administration (blood volume was about 0.2 mL): 0.25, 0.5, 1.0, 2.0, 4.0, 6.0, 8.0 and 24 h (dogs) or 0.25, 0.5, 1.0, 2.0, 5.0, 7.0 and 24 h (Rats), EDTA-K2 was pre-added to the blood vessels as an anticoagulant. The blood samples were centrifuged at […] for 2 minutes. The plasma was collected and kept at −20° C. or −70° C.
# as §2
SMILES,AUC(0-inf) [1] [ng·h/mL],AUC(0-t) [1] [ng·h/mL],Cmax [1] [ng/mL],MRT inf [1] [h],Tmax [1] [h],half-life [1] [h],F [1] [%],IC50 (humanized GnRH receptor) [nM],"AUC(0-inf) ([2]; iv, i.v group, 1 mg/kg) [ng·h/mL]","AUC(0-t) ([2]; iv, i.v group, 1 mg/kg) [ng·h/mL]","Cmax ([2]; iv, i.v group, 1 mg/kg) [ng/mL]","MRT inf ([2]; iv, i.v group, 1 mg/kg) [h]","Tmax ([2]; iv, i.v group, 1 mg/kg) [h]","clearance ([2]; iv, i.v group, 1 mg/kg) [mL/min/kg]","half-life ([2]; iv, i.v group, 1 mg/kg) [h]","AUC(0-inf) ([2]; po, i.g group, 5 mg/kg) [ng·h/mL]","AUC(0-t) ([2]; po, i.g group, 5 mg/kg) [ng·h/mL]","Cmax ([2]; po, i.g group, 5 mg/kg) [ng/mL]","MRT inf ([2]; po, i.g group, 5 mg/kg) [h]","Tmax ([2]; po, i.g group, 5 mg/kg) [h]",further results
"CONC(=O)Nc1ccc(-c2sc3c(c2CN(C)C)c(=O)n(-c2ccc(-n4nccn4)cn2)c(=O)n3Cc2c(F)cccc2F)cc1 [Example 2, 1-(4-(3-(5-(2H-1,2,3-triazol-2-yl)pyrid-2-yl)-1-(2,6-difluorobenzyl)-5-((dimethylamino)methyl)-2,4-dioxo-1,2,3,4-tetrahydrothieno[2,3-d]pyrimidin-6-yl)phenyl)-3-methoxyurea]",4290,4130,720,5.59,1.33,4.41,133,3,266,261,352,1.22,0.083,62.7,1.33,529,519,177,2.48,0.667,"half-life ([2]; po, i.g group, 5 mg/kg): 1.91 h; F ([2]; i.g group, 5 mg/kg): 39.8%"
"CONC(=O)Nc1ccc(-c2sc3c(c2CN(C)C)c(=O)n(-c2ccc(-n4cccn4)nc2)c(=O)n3Cc2c(F)cccc2F)cc1 [Example 3, 1-(4-(3-(6-(1H-pyrazol-1-yl)pyrid-3-yl)-1-(2,6-difluorobenzyl)-5-((dimethylamino)methyl)-2,4-dioxo-1,2,3,4-tetrahydrothieno[2,3-d]pyrimidin-6-yl)phenyl)-3-methoxyurea]",11800,9490,671,13.2,1.67,9.44,140.3,1.82,184,179,151,4.58,0.083,90.7,2.13,1750,1710,164,6.4,2.33,"half-life ([2]; po, i.g group, 5 mg/kg): 4.43 h; F ([2]; i.g group, 5 mg/kg): 190.6%"
"CONC(=O)Nc1ccc(-c2sc3c(c2CN(C)C)c(=O)n(-c2ccc(-n4nccn4)nc2)c(=O)n3Cc2c(F)cccc2F)cc1 [Example 4, 1-(4-(3-(6-(2H-1,2,3-triazol-2-yl)pyrid-3-yl)-1-(2,6-difluorobenzyl)-5-((dimethylamino)methyl)-2,4-dioxo-1,2,3,4-tetrahydrothieno[2,3-d]pyrimidin-6-yl)phenyl)-3-methoxyurea]",,,,,,,,2.22,,,,,,,,,,,,,
"CONC(=O)Nc1ccc(-c2sc3c(c2CN(C)C)c(=O)n(-c2cccc(-n4cccn4)n2)c(=O)n3Cc2c(F)cccc2F)cc1 [Example 5, 1-(4-(3-(6-(1H-pyrazol-1-yl)pyrid-2-yl)-1-(2,6-difluorobenzyl)-5-((dimethylamino)methyl)-2,4-dioxo-1,2,3,4-tetrahydrothieno[2,3-d]pyrimidin-6-yl)phenyl)-3-methoxyurea]",,,,,,,,4.1,,,,,,,,,,,,,
"CONC(=O)Nc1ccc(-c2sc3c(c2CN(C)C)c(=O)n(-c2ccc(-n4cccn4)nn2)c(=O)n3Cc2c(F)cccc2F)cc1 [Example 12, 1-(4-(3-(6-(1H-pyrazol-1-yl)pyridazin-3-yl)-1-(2,6-difluorobenzyl)-5-((dimethylamino)methyl)-2,4-dioxo-1,2,3,4-tetrahydrothieno[2,3-d]pyrimidin-6-yl)phenyl)-3-methoxyurea]",,,,,,,,3.13,,,,,,,,,,,,,
